The target of test [1] is T1, Alpha-2A adrenergic receptor (Homo sapiens, UniProt P08913). Further: in other assays of this panel Not Active means under 50% inhibition at 10 µM.
T1 sequence (P08913 whole entry): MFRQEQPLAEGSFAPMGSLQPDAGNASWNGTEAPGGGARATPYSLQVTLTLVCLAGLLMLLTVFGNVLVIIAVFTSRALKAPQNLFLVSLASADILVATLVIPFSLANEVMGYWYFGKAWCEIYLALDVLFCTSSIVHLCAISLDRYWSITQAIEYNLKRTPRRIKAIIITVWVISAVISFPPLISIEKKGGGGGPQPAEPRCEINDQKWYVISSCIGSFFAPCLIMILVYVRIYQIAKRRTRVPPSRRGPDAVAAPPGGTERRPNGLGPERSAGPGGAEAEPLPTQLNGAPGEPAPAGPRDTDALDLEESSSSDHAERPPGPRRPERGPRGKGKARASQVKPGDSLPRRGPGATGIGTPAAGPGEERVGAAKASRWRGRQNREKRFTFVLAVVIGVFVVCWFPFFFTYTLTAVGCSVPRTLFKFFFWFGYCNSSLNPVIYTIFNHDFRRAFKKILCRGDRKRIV
Type of test: cell membranes, Sf9, Membrane.

Test [2] addresses Beta-3 adrenergic receptor (Homo sapiens, UniProt P13945). The test is described as follows: DRUGMATRIX: Adrenergic beta3 radioligand binding (ligand: [125I] Cyanopindolol). Type of test: cell membranes, HEK293, Membrane. The conditions noted are these: hek293; Not Active = under 50% inhibition at 10 µM.
The nature of test [3]: DRUGMATRIX: Glutamate, NMDA, Phencyclidine radioligand binding (ligand: [3H] TCP). Type of test: cell membranes, Rattus norvegicus, Wistar, Cerebral cortex, Membrane. The conditions noted are these: Not Active = under 50% inhibition at 10 µM.
Test [4] addresses T2, Muscarinic acetylcholine receptor M5 (Homo sapiens, UniProt P08912).
T2 sequence (P08912 whole entry): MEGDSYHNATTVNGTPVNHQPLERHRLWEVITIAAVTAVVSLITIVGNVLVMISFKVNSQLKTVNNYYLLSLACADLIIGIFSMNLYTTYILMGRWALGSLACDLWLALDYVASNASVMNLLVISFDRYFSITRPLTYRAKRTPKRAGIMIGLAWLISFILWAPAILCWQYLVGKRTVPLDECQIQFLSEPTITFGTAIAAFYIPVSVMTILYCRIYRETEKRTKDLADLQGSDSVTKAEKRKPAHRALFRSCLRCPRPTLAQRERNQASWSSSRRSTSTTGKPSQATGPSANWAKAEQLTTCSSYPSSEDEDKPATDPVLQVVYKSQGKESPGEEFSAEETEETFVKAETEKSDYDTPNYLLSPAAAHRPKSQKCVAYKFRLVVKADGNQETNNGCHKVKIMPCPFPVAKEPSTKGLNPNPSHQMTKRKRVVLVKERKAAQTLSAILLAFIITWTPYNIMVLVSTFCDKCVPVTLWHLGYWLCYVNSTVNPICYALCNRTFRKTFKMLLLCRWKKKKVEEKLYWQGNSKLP
It is filed as cell membranes, CHO-K1, Membrane.

Test [5] addresses T3, Nitric oxide synthase, inducible (Mus musculus, UniProt P29477).
T3 sequence (P29477 whole entry): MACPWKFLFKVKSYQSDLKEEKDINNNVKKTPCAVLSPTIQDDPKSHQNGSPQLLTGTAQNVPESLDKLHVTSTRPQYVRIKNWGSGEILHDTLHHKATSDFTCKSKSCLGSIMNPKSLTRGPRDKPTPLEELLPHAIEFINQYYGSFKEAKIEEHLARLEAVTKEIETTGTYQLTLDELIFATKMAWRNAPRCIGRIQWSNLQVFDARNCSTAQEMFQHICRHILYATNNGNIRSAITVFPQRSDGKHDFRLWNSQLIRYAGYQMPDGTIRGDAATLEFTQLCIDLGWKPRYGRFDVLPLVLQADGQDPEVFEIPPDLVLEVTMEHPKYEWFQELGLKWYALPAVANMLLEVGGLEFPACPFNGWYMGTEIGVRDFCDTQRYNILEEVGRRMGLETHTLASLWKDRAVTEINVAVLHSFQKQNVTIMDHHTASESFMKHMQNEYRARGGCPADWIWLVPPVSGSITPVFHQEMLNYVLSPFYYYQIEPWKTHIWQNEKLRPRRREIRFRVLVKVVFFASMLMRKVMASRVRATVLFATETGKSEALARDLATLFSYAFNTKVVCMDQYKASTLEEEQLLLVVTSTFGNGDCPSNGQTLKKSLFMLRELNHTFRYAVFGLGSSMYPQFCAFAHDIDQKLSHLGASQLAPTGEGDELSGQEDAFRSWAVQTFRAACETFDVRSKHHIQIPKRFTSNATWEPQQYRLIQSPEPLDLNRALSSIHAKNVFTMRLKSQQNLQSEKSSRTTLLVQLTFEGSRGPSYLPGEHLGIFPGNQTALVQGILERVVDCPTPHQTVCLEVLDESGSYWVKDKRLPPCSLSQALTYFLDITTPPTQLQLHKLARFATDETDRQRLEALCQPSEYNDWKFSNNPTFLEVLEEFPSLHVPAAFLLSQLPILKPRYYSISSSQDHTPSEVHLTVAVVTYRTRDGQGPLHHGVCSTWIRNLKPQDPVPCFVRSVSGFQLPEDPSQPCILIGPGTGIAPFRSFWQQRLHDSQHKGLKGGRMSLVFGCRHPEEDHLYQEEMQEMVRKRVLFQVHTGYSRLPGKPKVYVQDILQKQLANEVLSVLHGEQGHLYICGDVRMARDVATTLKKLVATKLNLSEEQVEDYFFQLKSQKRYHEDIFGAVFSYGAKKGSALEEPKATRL
Further details: species or system Escherichia coli.

Chain of Beta-3 adrenergic receptor (P13945 whole entry): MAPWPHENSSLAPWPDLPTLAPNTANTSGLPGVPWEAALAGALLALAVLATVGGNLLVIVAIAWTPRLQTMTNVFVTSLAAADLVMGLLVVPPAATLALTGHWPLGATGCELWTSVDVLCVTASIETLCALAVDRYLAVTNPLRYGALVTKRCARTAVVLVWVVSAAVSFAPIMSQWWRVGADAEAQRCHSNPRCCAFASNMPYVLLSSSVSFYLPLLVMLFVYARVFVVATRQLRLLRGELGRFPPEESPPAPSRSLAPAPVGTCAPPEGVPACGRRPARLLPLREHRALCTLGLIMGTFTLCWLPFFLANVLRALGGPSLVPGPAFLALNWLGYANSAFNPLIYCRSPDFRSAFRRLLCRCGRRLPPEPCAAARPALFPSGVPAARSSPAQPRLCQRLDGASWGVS

As a reminder, the IC50 is the point on the concentration scale where inhibition reaches its midpoint. For orientation: Ki means the equilibrium dissociation constant of an inhibitor or competing ligand from its target. As for `N=C(N)c1ccc(OCCCCCOc2ccc(C(=N)N)cc2)cc1` [PENTAMIDINE], the IC50 in test [1] (read-out: IC50) was 1.38 µM; in test [2], “Not Active”; in test [3], “Not Active”; in test [4] (read-out: IC50), 2.88 µM; in test [5] it was “Not Active”. Moreover, the Ki in test [1] (read-out: Ki) is 0.516 µM; in test [3] it was “Not Active”; in test [4] (read-out: Ki), 2.07 µM.

For `NNCCc1ccccc1` [PHENELZINE], the IC50 entry in test [1] (sf9), in test [2], in test [3], in test [4] (cho-k1) and in test [5] was “Not Active” throughout. The Ki result in test [3] was “Not Active”.

Regarding `CCc1ccc(CCOc2ccc(CC3SC(=O)NC3=O)cc2)nc1` (stereo not drawn) [PIOGLITAZONE], the IC50 entry in test [1] (sf9), in test [2], in test [3], in test [4] (cho-k1) and in test [5] was “Not Active” each time. The Ki entry in test [3] was “Not Active”.

Turning to `CCCNC(C)C(=O)Nc1ccccc1C` (stereo not drawn) [PRILOCAINE], the IC50 entry in test [1] (sf9), in test [2], in test [3], in test [4] (cho-k1) and in test [5] was “Not Active” in each case. Further, in test [3], the Ki result is “Not Active”.

`CCN(CC)CCNC(=O)c1ccc(N)cc1` [PROCAINAMIDE]: the IC50 result in test [1] (sf9), in test [2], in test [3], in test [4] (cho-k1) and in test [5] was “Not Active” in each case. Besides, in test [3], the Ki result is “Not Active”.

As for `CCN(CC)CCCC(C)Nc1c2ccc(Cl)cc2nc2ccc(OC)cc12` (stereo not drawn) [QUINACRINE], the IC50 in test [1] (read-out: IC50) was 2.28 µM; in test [2], “Not Active”; in test [3] it was “Not Active”; in test [4] (read-out: IC50), 3.74 µM; in test [5], “Not Active”. Moreover, the Ki was 0.855 µM in test [1] (read-out: Ki), “Not Active” in test [3] and 2.68 µM in test [4] (read-out: Ki).

`C[C@]12C=CC(=O)C=C1CC[C@H]1[C@@H]3C[C@@H](O)[C@](O)(C(=O)CO)[C@@]3(C)C[C@H](O)[C@@]12F` [TRIAMCINOLONE]: the IC50 result in test [1] (sf9), in test [2], in test [3], in test [4] (cho-k1) and in test [5] was “Not Active” in each case. Further, the Ki entry in test [3] is on record as “Not Active”.

As to `CC[C@]1(O)C[C@@H]2CN(CCc3c([nH]c4ccccc34)[C@@](C(=O)OC)(c3cc4c(cc3OC)N(C)[C@H]3[C@@](O)(C(N)=O)[C@H](O)[C@]5(CC)C=CCN6CC[C@]43[C@@H]65)C2)C1` [VINDESINE], the IC50 result in test [1] (sf9), in test [2], in test [3], in test [4] (cho-k1) and in test [5] was “Not Active” in each case. Further, in test [3], the Ki result is “Not Active”.

In the case of `CCN(C(C)=O)c1cccc(-c2ccnc3c(C#N)cnn23)c1` [ZALEPLON], the IC50 entry in test [1] (sf9), in test [2], in test [3], in test [4] (cho-k1) and in test [5] was “Not Active” in each case. The Ki result in test [3] is on record as “Not Active”.

With COBALTOUS CHLORIDE, the IC50 entry in test [1] (sf9), in test [2], in test [3], in test [4] (cho-k1) and in test [5] was “Not Active” in each case. Moreover, the Ki entry in test [1] (sf9), in test [2], in test [3], in test [4] (cho-k1) and in test [5] was “Not Active” each time.

COLISTIN: the IC50 entry in test [1] (sf9), in test [2], in test [3], in test [4] (cho-k1) and in test [5] was “Not Active” in each case. For the same molecule, the Ki entry in test [1] (sf9), in test [2], in test [3], in test [4] (cho-k1) and in test [5] was “Not Active” throughout.

The record behind these values is ChEMBL document CHEMBL1909046, “DrugMatrix in vitro pharmacology data”.
